From patent publication US12617767B2, “Crystalline forms of somatostatin modulators” (Crinetics Pharmaceuticals, Inc., priority 2019, dated 2026)
Read-outs that look alike come from different tables or passages of the source.

Experiment: Equilibrium solubility in simulated fluids and water at 37° C.
Format: physicochemical
Settings: for pH (24 hr): dimesylate; for solubility at 24 h: above calibration range
Protocol: The solubility Compound A⋅2MSA, Patterns A, B and I, was measured in water, fasted state simulated gastric fluid (FaSSGF) and fasted state simulated intestinal fluid (FaSSIF) at 37° C. by slurrying in the respective media for 24 hours. 1.5 mL of the fluid was stirred at 37° C. About 5 mg of the specified solid was added to FaSSIF and a thin slurry was immediately formed. As a test, approximately 80 and 60 mg of Pattern A was added to 1.5 mL of water and FaSSGF, respectively without formation of a slurry. Therefore, about 10 mg of the desired Pattern was added to water and FaSSGF solutions. The samples were allowed to stir at 37° C. for 24 hrs. The stir bars were removed from the FaSSIF vials and the solids allowed to settle for 0.5 hours at 37° C. The supernatant/solutions were syringe filtered and recovered for analysis by HPLC as well as for pH measurement.

Structure (SMILES): CS(=O)(=O)O.CS(=O)(=O)O.N#Cc1cccc(-c2ccc3ncc(-c4cc(F)cc(F)c4)c(N4CCC(N)CC4)c3c2)c1O [Pattern B, 3-(4-(4-aminopiperidin-1-yl)-3-(3,5-difluorophenyl)quinolin-6-yl)-2-hydroxybenzonitrile dimesylate]
- comments (FaSSGF (pH 1.70), 24 hrs): dissolved
- pH (24 hr) (FaSSGF (pH 1.70)): 1.80
- solubility at 24 h (FaSSGF, 37 °C, pH 1.7, fassgf or other biorelevant, thermodynamic from solid, FaSSGF (pH 1.70), 24 hrs, mg of Compound A (free base), read-out: Concentration): > 6570 µg/mL
- comments (FaSSIF (pH 6.48), 24 hrs): disproportionated
- pH (24 hr) (FaSSIF (pH 6.48)): 6.02
- solubility thermodynamic at 24 h (FaSSIF, 37 °C, pH 6.48, fassif, thermodynamic from solid, FaSSIF (pH 6.48), 24 hrs, mg of Compound A (free base), read-out: Concentration): 11 µg/mL
- solubility at 24 h (water, 37 °C, water, thermodynamic from solid, water, 24 hrs, mg of Compound A (free base), read-out: Concentration): > 6250 µg/mL
- comments (water, 24 hrs): dissolved
- pH (24 hr) (water): 3.08
